Measurements as given in PubChem BioAssay (NCI).
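All cell lines were grown in 96-well plates and treated with compound for 48 hours. The concentration for 50% growth inhibition is given as GI50. The concentration for full growth arrest is given as TGI.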

Assays:
Assay in all cases: NCI-60 cell line screen, 48 h
[1] = system: HCT-15 colon
[2] = system: K-562 leukemia
[3] = system: TK-10 renal
[4] = system: NCI-H23 lung
[5] = system: UACC-257 melanoma
[6] = system: HOP-62 NSCLC
[7] = system: OVCAR-8 ovarian
[8] = system: SNB-19 CNS
[9] = system: 786-0 renal
[10] = system: COLO 205 colon
[11] = system: UACC-62 melanoma
[12] = system: OVCAR-3 ovarian
[13] = system: SNB-78 CNS
[14] = system: KM20L2 colon
[15] = system: LOX IMVI melanoma
[16] = system: EKVX NSCLC
[17] = system: LXFL 529 NSCLC
[18] = system: HCT-116 colon
[19] = system: SN12C renal
[20] = system: UO-31 renal
[21] = system: SW-620 colon
[22] = system: U251 CNS
[23] = system: HT29 colon
[24] = system: NCI-H522 lung
[25] = system: DLD-1 colon
[26] = system: M14 melanoma
[27] = system: DMS 273 small cell lung
[28] = system: HCC-2998 colon
[29] = system: SK-MEL-5 melanoma
[30] = system: MOLT-4 leukemia
[31] = system: M19-MEL melanoma
[32] = system: SK-MEL-28 melanoma
[33] = system: OVCAR-5 ovarian
[34] = system: A549 NSCLC
[35] = system: KM12 colon
[36] = system: ACHN renal
[37] = system: SR leukemia
[38] = system: RXF 393 renal
[39] = system: CAKI-1 renal
[40] = system: SF-295 CNS
[41] = system: NCI-H226 lung
[42] = system: CCRF-CEM leukemia
[43] = system: SF-539 CNS
[44] = system: HL-60(TB) leukemia
[45] = system: MALME-3M melanoma
[46] = system: NCI-H460 lung
[47] = system: SF-268 CNS
[48] = system: IGROV1 ovarian
[49] = system: SK-OV-3 ovarian
[50] = system: DMS 114 small cell lung
[51] = system: RPMI-8226 leukemia
[52] = system: OVCAR-4 ovarian
[53] = system: A498 renal
[54] = system: SNB-75 CNS
[55] = system: SK-MEL-2 melanoma
[56] = system: HOP-92 NSCLC
[57] = system: HOP-18 NSCLC

For `CCCCCC(=O)N[C@H]1CCc2cc(O)c(O)c(O)c2-c2ccc(SC)c(=O)cc21`, the TGI [1] was 42.9 µM, the TGI [2] was over 49.9 µM and the TGI [3] was over 100 µM. It also gave a TGI [4] of 55 µM, a TGI [5] of over 75.3 µM and a TGI [6] of over 100 µM. The TGI [7] was over 59.8 µM, the TGI [8] was over 100 µM and the TGI [9] was over 100 µM. It also gave a TGI [10] of 44.5 µM, a TGI [11] of 83.4 µM and a TGI [12] of 99.6 µM. For the same molecule, the TGI [13] was over 100 µM, the TGI [14] was 53.7 µM and the TGI [15] was 44.3 µM. The TGI [16] was over 100 µM, the TGI [17] was 48.7 µM and the TGI [18] was 33 µM. The TGI [19] was 42.7 µM, the TGI [20] was over 100 µM and the TGI [21] was 33.6 µM. For the same molecule, the TGI [22] was over 73.8 µM, the TGI [23] was over 87.1 µM and the TGI [24] was 54.5 µM. For the same molecule, the TGI [25] was 40.6 µM, the TGI [26] was 36.7 µM and the TGI [27] was over 100 µM. The TGI [28] was over 79 µM, the TGI [29] was 75.5 µM and the TGI [30] was 90.1 µM. The TGI [31] was 53.1 µM, the TGI [32] was over 100 µM and the TGI [33] was over 100 µM. It also gave a TGI [34] of over 100 µM, a TGI [35] of over 100 µM and a TGI [36] of over 100 µM. For the same molecule, the TGI [37] was 68.8 µM, the TGI [38] was over 100 µM and the TGI [39] was 91.6 µM. For the same molecule, the TGI [40] was 54.1 µM, the TGI [41] was 72.6 µM and the TGI [42] was over 76.9 µM. For the same molecule, the TGI [43] was 45.3 µM, the TGI [44] was 51.2 µM and the TGI [45] was over 100 µM. It also gave a TGI [46] of over 100 µM, a TGI [47] of over 100 µM and a TGI [48] of over 100 µM. For the same molecule, the TGI [49] was 66.2 µM, the TGI [50] was 24 µM and the TGI [51] was over 100 µM. The TGI [52] was 44.7 µM, the TGI [53] was 64.1 µM and the TGI [54] was 78.5 µM. For the same molecule, the TGI [55] was 72.4 µM and the TGI [56] was 90.9 µM.

In the case of `O=C([O-])c1cc(I)cc(I)c1[OH2+].O=C([O-])c1cc(I)cc(I)c1[OH2+].[Mn+2]`, the GI50 [1] is reported as over 100 µM, the TGI [1] is reported as over 100 µM and the GI50 [2] is reported as over 100 µM. It also gave a TGI [2] of over 100 µM, a GI50 [3] of 32.1 µM and a TGI [3] of over 100 µM. The GI50 [4] was 30.4 µM, the TGI [4] was 89.4 µM and the GI50 [5] was 18.8 µM. The TGI [5] was 43.1 µM, the GI50 [6] was 35.2 µM and the TGI [6] was over 100 µM. It also gave a GI50 [7] of 34.2 µM, a TGI [7] of over 100 µM and a GI50 [8] of 29 µM. For the same molecule, the TGI [8] was 87.7 µM, the GI50 [9] was 51 µM and the TGI [9] was over 100 µM. The GI50 [10] was over 100 µM, the TGI [10] was over 100 µM and the GI50 [11] was 45.7 µM. It also gave a TGI [11] of over 100 µM, a GI50 [12] of 24 µM and a TGI [12] of 77.6 µM. For the same molecule, the GI50 [14] was over 100 µM, the TGI [14] was over 100 µM and the GI50 [15] was 46.2 µM. It also gave a TGI [15] of over 100 µM, a GI50 [16] of 72.3 µM and a TGI [16] of over 100 µM. For the same molecule, the GI50 [18] was 36.7 µM, the TGI [18] was over 100 µM and the GI50 [19] was 18.9 µM. The TGI [19] was 42.9 µM, the GI50 [20] was 35.6 µM and the TGI [20] was over 100 µM. For the same molecule, the GI50 [21] was 53.2 µM, the TGI [21] was over 100 µM and the GI50 [22] was 21.5 µM. It also gave a TGI [22] of 61.3 µM, a GI50 [23] of 97.8 µM and a TGI [23] of over 100 µM. For the same molecule, the GI50 [24] was 22.2 µM, the TGI [24] was 69.2 µM and the GI50 [25] was over 100 µM. It also gave a TGI [25] of over 100 µM, a GI50 [26] of 42.9 µM and a TGI [26] of over 100 µM. For the same molecule, the GI50 [27] was 37.7 µM, the TGI [27] was over 100 µM and the GI50 [29] was over 100 µM. It also gave a TGI [29] of over 100 µM, a GI50 [57] of over 100 µM and a TGI [57] of over 100 µM. It also gave a GI50 [30] of over 100 µM, a TGI [30] of over 100 µM and a GI50 [31] of 81.7 µM. It also gave a TGI [31] of over 100 µM, a GI50 [32] of over 100 µM and a TGI [32] of over 100 µM. The GI50 [34] was 56.4 µM, the TGI [34] was over 100 µM and the GI50 [35] was 67.3 µM. The TGI [35] was over 100 µM, the GI50 [36] was 20.3 µM and the TGI [36] was 59 µM. It also gave a GI50 [38] of 17.8 µM, a TGI [38] of 40.2 µM and a GI50 [40] of 33.5 µM. It also gave a TGI [40] of over 100 µM, a GI50 [41] of 33.7 µM and a TGI [41] of 74.1 µM. The GI50 [42] was over 100 µM, the TGI [42] was over 100 µM and the GI50 [43] was 24.8 µM. The TGI [43] was 60 µM, the GI50 [44] was over 100 µM and the TGI [44] was over 100 µM. The GI50 [45] was 33.9 µM, the TGI [45] was over 100 µM and the GI50 [46] was 64 µM. For the same molecule, the TGI [46] was over 100 µM, the GI50 [48] was 19.4 µM and the TGI [48] was 49.4 µM. The GI50 [49] was 20 µM, the TGI [49] was 44.2 µM and the GI50 [50] was 32 µM. For the same molecule, the TGI [50] was over 100 µM, the GI50 [51] was over 100 µM and the TGI [51] was over 100 µM. The GI50 [54] was 60.1 µM, the TGI [54] was 99.8 µM and the GI50 [55] was 48.5 µM. For the same molecule, the TGI [55] was over 100 µM.
